Test results: ChEMBL document CHEMBL3044926, “Controlling powdery mildew on cucurbit rootstock seedlings in the greenhouse with fungicides and biofungicides” (Crop Prot, 2012)

Assays:
Lagenaria siceraria [1] = assay: Phytotoxicity against Lagenaria siceraria 'Emphasis' rootstock seedlings; assay type: organism-based; conditions: in vivo
[2] = tested on: Cucurbita maxima x Cucurbita moschata; assay: Phytotoxicity against inter-specific squash hybrid Cucurbita moschata x Cucurbita maxima (Strong tosa) rootstock seedlings; assay type: organism-based; conditions: in vivo
Podosphaera xanthii [3] = assay: (§1) Fungicidal activity against Podosphaera xanthii (powdery mildew) inoculated in inter-specific squash hybrid Strong tosa (Cucurbita moschata x Cucurbita maxima) rootstock seedlings for 7 days prior to drug application assessed as disease severity at 98.2% in 11.99 g/L applied once measured 7 days post-drug dose under greenhouse conditions (water Rvb = 17.5%); assay type: functional
Podosphaera xanthii [4] = assay: (§2) Fungicidal activity against Podosphaera xanthii (powdery mildew) inoculated in Lagenaria siceraria Emphasis continuously after first drug application assessed as disease severity on lower surface areas of cotyledons at 98.2% in 11.99 g/L applied thrice at 5-days intervals measured 5 days after third application under green house conditions (water Rvb = 13.9%); assay type: functional
Podosphaera xanthii [5] = assay: as §2, with “squash (Cucurbita pepo) rootstock seedlings” for “Lagenaria siceraria Emphasis”, “severity” for “severity on lower surface areas of cotyledons”, “3.9%)” for “13.9%)”; assay type: functional
Podosphaera xanthii [6] = assay: as §2, with “upper” for “lower”, “36.8%)” for “13.9%)”; assay type: functional
Podosphaera xanthii [7] = assay: Fungicidal activity against Podosphaera xanthii (powdery mildew) inoculated in inter-specific squash hybrid Strong tosa (Cucurbita moschata x Cucurbita maxima) rootstock seedlings for 7 days prior to drug application assessed as incidence of disease symptoms on hypocotyls or upper or lower sides of cotyledons at 98.2% in 11.99 g/L applied once measured 7 days post-drug dose under greenhouse …; assay type: functional
Podosphaera xanthii [8] = assay: Fungicidal activity against Podosphaera xanthii (powdery mildew) inoculated in squash (Cucurbita pepo) rootstock seedlings continuously after first drug application assessed as incidence of disease symptoms on hypocotyls or upper or lower sides of cotyledons at 98.2% in 11.99 g/L applied thrice at 5-days intervals measured 5 days after third application under green house conditions (water Rvb = …; assay type: functional
Podosphaera xanthii [9] = assay: as §1, with “severity on upper surface areas of cotyledonsat” for “severity at”, “= 10.2%)” for “= 17.5%)”; assay type: functional
Podosphaera xanthii [10] = assay: as §2, with “severity” for “severity on lower surface areas of cotyledons”, “53.5%)” for “13.9%)”; assay type: functional
Podosphaera xanthii [11] = assay: (§3) Fungicidal activity against Podosphaera xanthii (powdery mildew) inoculated in Lagenaria siceraria Emphasis continuously after first drug application assessed as incidence of disease symptoms on hypocotyls or upper or lower sides of cotyledons at 98.2% in 11.99 g/L applied thrice at 5-days intervals measured 5 days after third application under green house conditions (water Rvb = 100%); assay type: functional
[12] = tested on: Cucurbita maxima x Cucurbita moschata; assay: Phytotoxicity against inter-specific squash hybrid Cucurbita moschata x Cucurbita maxima (Strong tosa) rootstock seedlings assessed as stunting; assay type: organism-based; conditions: in vivo
Lagenaria siceraria [13] = assay: Phytotoxicity against Lagenaria siceraria 'Emphasis' rootstock seedlings assessed as stunting; assay type: organism-based; conditions: in vivo
Podosphaera xanthii [14] = assay: as §1, with “severity on lower surface areas of cotyledonsat” for “severity at”, “= 5.1%)” for “= 17.5%)”; assay type: functional
Lagenaria siceraria [15] = assay: Phytotoxicity against Lagenaria siceraria 'Emphasis' rootstock seedlings assessed as seedlings with stunted growth; assay type: organism-based; conditions: in vivo
[16] = tested on: Cucurbita maxima x Cucurbita moschata; assay: Phytotoxicity against inter-specific squash hybrid Cucurbita moschata x Cucurbita maxima (Strong tosa) rootstock seedlings assessed as seedlings with stunted growth; assay type: organism-based; conditions: in vivo
Lagenaria siceraria [17] = assay: Phytotoxicity against Lagenaria siceraria 'Emphasis' rootstock seedlings assessed as stunted growth; assay type: organism-based; conditions: in vivo
[18] = tested on: Cucurbita maxima x Cucurbita moschata; assay: Phytotoxicity against inter-specific squash hybrid Cucurbita moschata x Cucurbita maxima (Strong tosa) rootstock seedlings assessed as stunted growth; assay type: organism-based; conditions: in vivo
Podosphaera xanthii [19] = assay: as §2, with “38.7%” for “98.2%”, “0.62 ml/L” for “11.99 g/L”; assay type: functional
Podosphaera xanthii [20] = assay: as §1, with “38.7%” for “98.2%”, “0.62 ml/L” for “11.99 g/L”; assay type: functional
Podosphaera xanthii [21] = assay: as §2, with “upper” for “lower”, “38.7%” for “98.2%”, “0.62 ml/L” for “11.99 g/L”, “36.8%)” for “13.9%)”; assay type: functional
Podosphaera xanthii [22] = assay: (§4) Fungicidal activity against Podosphaera xanthii (powdery mildew) inoculated in inter-specific squash hybrid Strong tosa (Cucurbita moschata x Cucurbita maxima) rootstock seedlings continuously after first drug application assessed as disease severity at 38.7% in 0.62 ml/L applied thrice at 5-days intervals measured 5 days after third application under green house conditions (water Rvb = 4.2%); assay type: functional
Podosphaera xanthii [23] = assay: Fungicidal activity against Podosphaera xanthii (powdery mildew) inoculated in inter-specific squash hybrid Strong tosa (Cucurbita moschata x Cucurbita maxima) rootstock seedlings for 7 days prior to drug application assessed as incidence of disease symptoms on hypocotyls or upper or lower sides of cotyledons at 38.7% in 0.62 ml/L applied once measured 7 days post-drug dose under greenhouse …; assay type: functional
Podosphaera xanthii [24] = assay: as §4, with “in” for “in inter-specific”, “squash” for “squash hybrid Strong tosa”, “pepo)” for “moschata x Cucurbita maxima)”, “3.9%)” for “4.2%)”; assay type: functional
Podosphaera xanthii [25] = assay: Fungicidal activity against Podosphaera xanthii (powdery mildew) inoculated in inter-specific squash hybrid Strong tosa (Cucurbita moschata x Cucurbita maxima) rootstock seedlings continuously after first drug application assessed as incidence of disease symptoms on hypocotyls or upper or lower sides of cotyledons at 38.7% in 0.62 ml/L applied thrice at 5-days intervals measured 5 days after …; assay type: functional
Podosphaera xanthii [26] = assay: Fungicidal activity against Podosphaera xanthii (powdery mildew) inoculated in squash (Cucurbita pepo) rootstock seedlings continuously after first drug application assessed as incidence of disease symptoms on hypocotyls or upper or lower sides of cotyledons at 38.7% in 0.62 ml/L applied thrice at 5-days intervals measured 5 days after third application under green house conditions (water Rvb = …; assay type: functional
Podosphaera xanthii [27] = assay: as §1, with “on upper surface areas of cotyledonsat 38.7%” for “at 98.2%”, “0.62 ml/L” for “11.99 g/L”, “10.2%)” for “17.5%)”; assay type: functional
Podosphaera xanthii [28] = assay: as §2, with “severity” for “severity on lower surface areas of cotyledons”, “38.7%” for “98.2%”, “0.62 ml/L” for “11.99 g/L”, “53.5%)” for “13.9%)”; assay type: functional
Podosphaera xanthii [29] = assay: as §3, with “38.7%” for “98.2%”, “0.62 ml/L” for “11.99 g/L”; assay type: functional
Podosphaera xanthii [30] = assay: as §1, with “on lower surface areas of cotyledonsat 38.7%” for “at 98.2%”, “0.62 ml/L” for “11.99 g/L”, “5.1%)” for “17.5%)”; assay type: functional
Podosphaera xanthii [31] = assay: as §1, with “on upper surface areas of cotyledonsat 45%” for “at 98.2%”, “0.6” for “11.99”, “10.2%)” for “17.5%)”; assay type: functional
Podosphaera xanthii [32] = assay: as §1, with “45%” for “98.2%”, “0.6” for “11.99”; assay type: functional
Podosphaera xanthii [33] = assay: Fungicidal activity against Podosphaera xanthii (powdery mildew) inoculated in inter-specific squash hybrid Strong tosa (Cucurbita moschata x Cucurbita maxima) rootstock seedlings for 7 days prior to drug application assessed as incidence of disease symptoms on hypocotyls or upper or lower sides of cotyledons at 45% in 0.6 g/L applied once measured 7 days post-drug dose under greenhouse …; assay type: functional
Podosphaera xanthii [34] = assay: (§5) Fungicidal activity against Podosphaera xanthii (powdery mildew) inoculated in squash (Cucurbita pepo) rootstock seedlings continuously after first drug application assessed as disease severity at 45% in 0.6 g/L applied thrice at 5-days intervals measured 5 days after third application under green house conditions (water Rvb = 3.9%); assay type: functional
Podosphaera xanthii [35] = assay: Fungicidal activity against Podosphaera xanthii (powdery mildew) inoculated in squash (Cucurbita pepo) rootstock seedlings continuously after first drug application assessed as incidence of disease symptoms on hypocotyls or upper or lower sides of cotyledons at 45% in 0.6 g/L applied thrice at 5-days intervals measured 5 days after third application under green house conditions (water Rvb = …; assay type: functional
Podosphaera xanthii [36] = assay: as §1, with “on lower surface areas of cotyledonsat 45%” for “at 98.2%”, “0.6” for “11.99”, “rvb” for “Rvb”, “5.1%)” for “17.5%)”; assay type: functional
Podosphaera xanthii [37] = assay: as §1, with “46.1%” for “98.2%”, “1.50” for “11.99”; assay type: functional, organism-based
Podosphaera xanthii [38] = assay: as §5, with “46.1%” for “45%”, “1.50” for “0.6”; assay type: functional, organism-based
Podosphaera xanthii [39] = assay: Fungicidal activity against Podosphaera xanthii (powdery mildew) inoculated in inter-specific squash hybrid Strong tosa (Cucurbita moschata x Cucurbita maxima) rootstock seedlings for 7 days prior to drug application assessed as incidence of disease symptoms on hypocotyls or upper or lower sides of …; assay type: functional, organism-based
Podosphaera xanthii [40] = assay: Fungicidal activity against Podosphaera xanthii (powdery mildew) inoculated in squash (Cucurbita pepo) rootstock seedlings continuously after first drug application assessed as incidence of disease symptoms on hypocotyls or upper or lower sides of cotyledons at 46.1% in 1.50 g/L applied thrice at …; assay type: functional, organism-based
Podosphaera xanthii [41] = assay: as §1, with “on lower surface areas of cotyledonsat 46.1%” for “at 98.2%”, “1.50” for “11.99”, “5.1%)” for “17.5%)”; assay type: functional, organism-based
Podosphaera xanthii [42] = assay: as §1, with “on upper surface areas of cotyledonsat 46.1%” for “at 98.2%”, “1.50” for “11.99”, “10.2%)” for “17.5%)”; assay type: functional, organism-based

`S1SSSSSSS1` [SULFUR] was tested, and the Activity (Lagenaria siceraria [1]) was “Non-toxic”, the Activity [2] was “Non-toxic” and the Activity (Podosphaera xanthii [3]) was 0.9%. It also gave an Activity (Podosphaera xanthii [4]) of 0.7%, an Activity (Podosphaera xanthii [5]) of 0.02% and an Activity (Podosphaera xanthii [6]) of 3%. The Activity (Podosphaera xanthii [7]) was 14.6%, the Activity (Podosphaera xanthii [8]) was 0% and the Activity (Podosphaera xanthii [9]) was 0.03%. For the same molecule, the Activity (Podosphaera xanthii [10]) was 3.7%, the Activity (Podosphaera xanthii [11]) was 34.9% and the Activity [12] was “Non-toxic”. For the same molecule, the Activity (Lagenaria siceraria [13]) was “Non-toxic” and the Activity (Podosphaera xanthii [14]) was 0.7%.

`CC(C)(C)C(O)(CCc1ccc(Cl)cc1)Cn1cncn1` (stereo not drawn) [TEBUCONAZOLE] was tested, and the Activity (Lagenaria siceraria [15]) was 100%, the Activity [16] was 71% and the “inhibition (INH)” value (Lagenaria siceraria [17]) was 33%. The “inhibition (INH)” value [18] was 33%, the Activity (Podosphaera xanthii [19]) was 0% and the Activity (Podosphaera xanthii [20]) was 0.5%. It also gave an Activity (Podosphaera xanthii [21]) of 0.5%, an Activity (Podosphaera xanthii [22]) of 0.005% and an Activity (Podosphaera xanthii [23]) of 34.9%. For the same molecule, the Activity (Podosphaera xanthii [24]) was 0%, the Activity (Podosphaera xanthii [25]) was 0% and the Activity (Podosphaera xanthii [26]) was 0%. For the same molecule, the Activity (Podosphaera xanthii [27]) was 0.2%, the Activity (Podosphaera xanthii [28]) was 0.7% and the Activity (Podosphaera xanthii [29]) was 5.6%. For the same molecule, the Activity (Podosphaera xanthii [30]) was 0.2%.

`COC(=O)NC(=S)Nc1ccccc1NC(=S)NC(=O)OC` [THIOPHANATE METHYL] was tested, and the Activity (Lagenaria siceraria [1]) was “Non-toxic”, the Activity [2] was “Non-toxic” and the Activity (Podosphaera xanthii [31]) was 3.9%. It also gave an Activity (Podosphaera xanthii [32]) of 7.4%, an Activity (Podosphaera xanthii [33]) of 85.4% and an Activity (Podosphaera xanthii [34]) of 3.2%. The Activity (Podosphaera xanthii [35]) was 90.8% and the Activity (Podosphaera xanthii [36]) was 3%.

In the case of COPPER HYDROXIDE [listing 1 of 2 here], the Activity (Lagenaria siceraria [1]) is reported as “Non-toxic”, the Activity [2] is reported as “Non-toxic” and the Activity [12] is reported as “Non-toxic”. The Activity (Lagenaria siceraria [13]) was “Non-toxic”.

In the case of COPPER HYDROXIDE [listing 2 of 2 here], the Activity (Podosphaera xanthii [37]) is reported as 13.6%, the Activity (Podosphaera xanthii [38]) is reported as 0.21% and the Activity (Podosphaera xanthii [39]) is reported as 97.7%. The Activity (Podosphaera xanthii [40]) was 9.2%, the Activity (Podosphaera xanthii [41]) was 4.3% and the Activity (Podosphaera xanthii [42]) was 8.2%.
